Source: PubChem BioAssay (NCI)
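Values below derive from 48-hour exposures of cells grown in 96-well plates, with endpoints linearly interpolated between the two concentrations bracketing the appropriate inhibition level. GI50 = concentration required for 50% inhibition of growth. Definition used: TGI = concentration required for complete inhibition of growth.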

Tests used:
Experiment in all cases: NCI anticancer screen, dose series, 48 h
MDA-MB-435 = tested on: MDA-MB-435
NCI-H226 lung = tested on: NCI-H226 lung
786-0 renal = tested on: 786-0 renal
SW-620 colon = tested on: SW-620 colon
SF-295 CNS = tested on: SF-295 CNS
HOP-62 NSCLC = tested on: HOP-62 NSCLC
TK-10 renal = tested on: TK-10 renal
RPMI-8226 leukemia = tested on: RPMI-8226 leukemia
BT-549 breast = tested on: BT-549 breast
HL-60(TB) leukemia = tested on: HL-60(TB) leukemia
HCC-2998 colon = tested on: HCC-2998 colon
SNB-75 CNS = tested on: SNB-75 CNS
OVCAR-4 ovarian = tested on: OVCAR-4 ovarian
EKVX NSCLC = tested on: EKVX NSCLC
HS 578T breast = tested on: HS 578T breast
IGROV1 ovarian = tested on: IGROV1 ovarian
NCI-H23 lung = tested on: NCI-H23 lung
ACHN renal = tested on: ACHN renal
SK-MEL-28 melanoma = tested on: SK-MEL-28 melanoma
OVCAR-5 ovarian = tested on: OVCAR-5 ovarian
U251 CNS = tested on: U251 CNS
HCT-116 colon = tested on: HCT-116 colon
NCI/ADR-RES ovarian = tested on: NCI/ADR-RES ovarian
UACC-62 melanoma = tested on: UACC-62 melanoma
SNB-19 CNS = tested on: SNB-19 CNS
MDA-MB-231 breast = tested on: MDA-MB-231 breast
SF-539 CNS = tested on: SF-539 CNS
LOX IMVI melanoma = tested on: LOX IMVI melanoma

## CCc1cc(Nc2nccc(-c3c(-c4ccc(OC)c(C(=O)Nc5c(F)cccc5F)c4)nc4ccccn34)n2)c(OC)cc1N1CCC(N2CCN(S(C)(=O)=O)CC2)CC1
MDA-MB-435
  GI50: > 100 µM
  TGI: > 100 µM
NCI-H226 lung
  GI50: > 69.3 µM
  TGI: > 100 µM
786-0 renal
  GI50: > 100 µM
  TGI: > 100 µM
SW-620 colon
  GI50: > 100 µM
  TGI: > 100 µM
SF-295 CNS
  GI50: > 100 µM
  TGI: > 100 µM
HOP-62 NSCLC
  GI50: > 100 µM
  TGI: > 100 µM
TK-10 renal
  GI50: > 90.4 µM
  TGI: > 100 µM
RPMI-8226 leukemia
  GI50: > 100 µM
  TGI: > 100 µM
BT-549 breast
  GI50: > 100 µM
  TGI: > 100 µM
HL-60(TB) leukemia
  GI50: > 100 µM
  TGI: > 100 µM
HCC-2998 colon
  GI50: > 100 µM
  TGI: > 100 µM
SNB-75 CNS
  GI50: > 50.1 µM
  TGI: > 100 µM
OVCAR-4 ovarian
  GI50: > 100 µM
  TGI: > 100 µM
EKVX NSCLC
  GI50: > 100 µM
  TGI: > 100 µM
HS 578T breast
  GI50: > 100 µM
  TGI: > 100 µM
IGROV1 ovarian
  GI50: > 100 µM
  TGI: > 100 µM
NCI-H23 lung
  GI50: > 100 µM
  TGI: > 100 µM
ACHN renal
  GI50: > 100 µM
  TGI: > 100 µM
SK-MEL-28 melanoma
  GI50: > 100 µM
  TGI: > 100 µM
OVCAR-5 ovarian
  GI50: > 100 µM
  TGI: > 100 µM
U251 CNS
  GI50: > 100 µM
  TGI: > 100 µM
HCT-116 colon
  GI50: 88.8 µM
  TGI: > 100 µM
NCI/ADR-RES ovarian
  GI50: > 100 µM
  TGI: > 100 µM
UACC-62 melanoma
  GI50: > 100 µM
  TGI: > 100 µM
SNB-19 CNS
  GI50: > 56.6 µM
  TGI: > 100 µM
MDA-MB-231 breast
  GI50: 44.3 µM
  TGI: > 100 µM
SF-539 CNS
  GI50: > 100 µM
  TGI: > 100 µM
LOX IMVI melanoma
  GI50: > 100 µM
  TGI: > 100 µM
